As usually defined, the LOAEL is the lowest tested level that showed an adverse finding. By NOAEL is commonly meant the highest tested level that showed no adverse finding.

In data set [1] the test system is rat. To be noted: Subchronic oral toxicity in rodents, fischer, Feed, dose end: 13 week, group: systemic, systemic / hematology / erythrocyte (rbc) count differential / erythrocyte (rbc) + systemic / hematology / hematocrit (hct) / hematocrit (….
The test system of data set [2] is rat. The note with it: Sub-acute repeat dose toxicity, sprague dawley, Oral, Gavage/Intubation, dose end: 28 day, group: systemic.
For data set [3], the system named is rat. To be noted: Chronic toxicity, sprague dawley, Oral, Gavage/Intubation, dose end: 26 week, group: systemic.
Another data set relates to primate. To be noted: Subchronic oral toxicity in nonrodent, macaque, Gavage/Intubation, dose end: 28 day, group: systemic, systemic / clinical chemistry / [other] / [other] + systemic / in life observation / clinical signs / emesis + systemic / in life ….
The subject of data set [4] is dog. To be noted: Subchronic oral toxicity in nonrodent, beagle, Feed, dose end: 13 week.
Data set [5] concerns rat. The note with it: Subchronic oral toxicity in rodents, other, Feed, dose end: 15 week, group: cholinesterase.
Data set [6] concerns dog. The note with it: Sub-acute repeat dose toxicity, beagle, Injection, Intravenous, dose end: 1 month, group: systemic.
Where [7] appears, read: systemic / clinical chemistry / alanine aminotransferase (alt/sgpt) / alanine aminotransferase (alt/sgpt) + systemic / clinical chemistry / ….
[8] abbreviates: systemic / hematology / platelet / platelet + systemic / in life observation / clinical signs / salivation.
Where [9] appears, read: systemic / clinical chemistry / alanine aminotransferase (alt/sgpt) / alanine aminotransferase (alt/sgpt) + systemic / in life observation….
[10] abbreviates: group: cholinesterase, cholinesterase / cholinesterase / cholinesterase / erythrocyte cholinesterase (che) + cholinesterase / cholinesterase / cholinesterase / ….
[11] abbreviates: group: systemic, systemic / in life observation / clinical signs / [other].
The mark [12] stands for this setting: cholinesterase / cholinesterase / cholinesterase / erythrocyte cholinesterase (che).
[13] abbreviates: cholinesterase / cholinesterase / cholinesterase / erythrocyte cholinesterase (che) + cholinesterase / cholinesterase / cholinesterase / ….
[14] abbreviates: systemic / clinical chemistry / [other] / [other] + systemic / hematology / erythrocyte (rbc) count differential / erythrocyte (rbc) + ….
Where [15] appears, read: systemic / urinalysis / potassium / potassium + systemic / urinalysis / sodium / sodium.

For `O=C(O)c1cc(O)c(O)c(O)c1` [Gallic acid], in the data set with rat [1], the LEL stood at 300 mg/kg/day, the lowest observed adverse effect level (LOAEL) was 300 mg/kg/day, the NEL was found to be 100 mg/kg/day and the NOAEL amounted to 100 mg/kg/day.
`CCCCN1C(=O)[C@@H]([C@H](O)C2CCCCC2)NC(=O)C12CCN(Cc1ccc(Oc3ccc(C(=O)O)cc3)cc1)CC2.Cl` [Aplaviroc hydrochloride]: the LOAEL in the data set on rat [2] (setting [7]) is greater than 1000 mg/kg/day; with rat [3] (setting [7]) it was greater than 750 mg/kg/day; in the data set on primate, greater than 1000 mg/kg/day. Further, the NOAEL in the data set with rat [2] (setting [7]) is no less than 1000 mg/kg/day; in the data set with rat [3] (setting [7]), no less than 750 mg/kg/day; in the data set with primate, no less than 1000 mg/kg/day. Further, the LEL with rat [2] (setting [8]) is 30 mg/kg/day; in the data set with rat [3] (setting [9]) it was 100 mg/kg/day; in the data set on primate, 30 mg/kg/day. For the same compound, the NEL is less than 30 mg/kg/day in the data set on rat [2] (setting [8]), less than 100 mg/kg/day with rat [3] (setting [9]) and less than 30 mg/kg/day in the data set on primate.
On to `COP(=S)(OC)Oc1ccc(Sc2ccc(OP(=S)(OC)OC)cc2)cc1` [Temephos], for which, in the data set on dog [4] (setting [10]), the LEL came out at 12.5 mg/kg/day, the LOAEL was found to be 12.5 mg/kg/day, the NEL came out at 0.46 mg/kg/day and the no observed adverse effect level (NOAEL) was found to be 0.46 mg/kg/day. In the data set on dog [4] (setting [11]), this compound displayed an LEL of 12.5 mg/kg/day, an LOAEL of 12.5 mg/kg/day, an NEL of 0.46 mg/kg/day and a no-observed-adverse-effect level (NOAEL) of 0.46 mg/kg/day. In the data set with rat [5] (setting [12]), this compound came in with an LEL of 0.9 mg/kg/day and an LOAEL of 0.9 mg/kg/day. In addition, in the data set on rat [5] (setting [13]), the NEL was 0.3 mg/kg/day and the NOAEL is 0.3 mg/kg/day.
As for `CN(C)c1ccc(O)c2c1C[C@H]1C[C@H]3[C@H](N(C)C)C(=O)C(C(N)=O)=C(O)[C@@]3(O)C(=O)C1=C2O` [Minocycline], in the data set on dog [6] (setting [14]), the LOAEL is greater than 40 mg/kg/day and the NOAEL was no less than 40 mg/kg/day. Moreover, in the data set with dog [6] (setting [15]), the LEL is 5 mg/kg/day and the NEL is less than 5 mg/kg/day.

The values above are taken from EPA's ToxRefDB 2.
